Assay results reported in patent US4001325A, “α-Chloroacetanilide selective herbicides” (Diamond Shamrock Corporation, priority 1973, dated 1977).

How the values were obtained:
[1] = system: corn; experiment: Example 17 damage to corn crop; format: in vivo
Text: (§1) This example illustrates the selective herbicidal activity of two of the presently preferred compounds of this invention against various weed species in a corn crop.
(§2) Plots of light sandy soil, cleared of all weeds, are uniformly treated with aqueous dispersions prepared from an emulsifiable concentrate containing 2- 4 pounds of active ingredient per gallon. Diluted aqueous dispersions are applied as surface treatments at 2.0, 1.0, 0.5, and 0.25 pound of active ingredient per acre (lb/A).
(§3) The treated test plots are sown to corn and with seeds of the following weed species:
(§4) Three to four weeks after planting, the degree of damage to both the corn stands and the weed plants is assessed from a rating of 0% (no injury) to 100% (complete destruction).

[2] = system: Barnyardgrass; experiment: Example 17 selective herbicidal activity in corn crop, weed kill; format: in vivo, Echinochloa crusgalli; details: Echinochloa crus-galli, 3-4 weeks after planting; for mortality at 280.212 g/ha: 0.25 lb/A; for mortality at 560.425 g/ha: 0.5 lb/A; for mortality at 1120.85 g/ha: 1.0 lb/A; for mortality at 2241.7 g/ha: 2.0 lb/A
Text: as §1, §2, §3, §4

[3] = system: Corn; experiment: Field preemergence test, phytotoxic effects on crop; format: in vivo, sweet corn
Text: (§5) Test plots of fertilized, light sandy soil containing 0.7% organic matter are sprayed uniformly with aqueous suspensions prepared from emulsifiable concentrates containing 12%, by weight, of the test chemicals diluted to provide dosage rates of the test compounds corresponding to 2.0, 1.0, 0.5, and 0.25 pound per acre (lb/A). The plots are then sown with seeds of the following crop plants: sweet corn, cotton (Coker 413) and soybeans, var. Davis. Seeds of the following weed plants are planted: redroot pigweed, prickly sida, common lambsquarter, goosegrass and giant foxtail.
(§6) Three to four weeks after planting, percent control (plant kill) of the test plants is estimated, from a rating of 0 which denotes no injury to the plant up to 100 which denotes complete destruction. The herbicidal action of the test compounds obtained on the weed species is as follows:
(§7) Phytotoxic effects observed on the crop species is estimated with results as follows: […]

[4] = system: Soybeans; experiment: as above; format: in vivo, var. Davis
Text: as §5, §6, §7

[5] = system: Redroot Pigweed; experiment: Field preemergence test, weed control; format: in vivo; details: 3-4 weeks after planting
Text: as §5
(§8) Three to four weeks after planting, percent control (plant kill) of the test plants is estimated, from a rating of 0 which denotes no injury to the plant up to 100 which denotes complete destruction. The herbicidal action of the test compounds obtained on the weed species is as follows: […]

[6] = system: Common Lambsquarter; experiment: Field preemergence test, weed control; format: in vivo; details: 3-4 weeks after planting
Text: as §5, §8

[7] = system: Goosegrass; experiment: Field preemergence test, weed control; format: in vivo; details: 3-4 weeks after planting
Text: as §5, §8

[8] = system: Giant Foxtail; experiment: Field preemergence test, weed control; format: in vivo; details: 3-4 weeks after planting
Text: as §5, §8

[9] = system: Prickly Sida; experiment: Field preemergence test, weed control; format: in vivo; details: 3-4 weeks after planting
Text: as §5, §8

[10] = system: Corn; experiment: Example 18 phytotoxic effects on crop stands in different soils; format: in vivo, field corn
Protocol: (§9) To further illustrate the herbicidal activity of compounds of this invention in different types of soil as would be encountered in different crop growing localities, a preemergence herbicide test is conducted generally as outlined previously herein. Two light sandy soils are employed containing 0.7% and 1.8% organic matter (O.M.), respectively, along with two loam-type, heavier soils containing either 2.0% or 5-5.5% organic matter (O.M.).
(§10) The test plots are all sprayed uniformly with formulations of the test compounds providing 2.0, 1.0, 0.5, and 0.25 pound of active chemical per acre (lb/A).
(§11) Prior to treatment, the soil plots are sown to field corn, soybean, and grain sorghum crops and seeds of barnyard-grass and yellow foxtail.
(§12) Three weeks after planting, the percent control of plant growth is rated from 0% (no injury) to 100% (total destruction). The results obtained are as follows:
(§13) Phytotoxic effects on the crop stands are similarly rated with the following results: […]

[11] = system: broadleaf species: pigweed, velvetleaf, morningglory; experiment: Greenhouse preemergence herbicide test, broadleaves; format: in vivo; details: two weeks after treatment, 20160 min
Protocol: To illustrate the preemergence herbicidal efficiency of the alkyl-substituted 2-chloro-N-propargylacetanilides of this invention, test formulations are prepared of each compound by mixing 20 ml of an acetone solution containing 0.125 g of chemical with 20 ml of water containing 0.01 g of Triton X-155 surfactant. The resultant formulations contain 3125 ppm of test compound, 50% by volume of acetone and 0.025% by weight of surfactant. Appropriate lower concentrations are obtained by diluting this formulation with surfactant-acetone solution so that the concentration of adjuvants is maintained at the original levels.
Seeds of three broadleaf and three grass species are planted in soil contained in 10 inch × 8 inch × 3 inch aluminum pans filled with 1.5 inches of composted soil. The broadleaf species are pigweed (Amaranthus retroflexus), velvetleaf (Abutilon theophrasti), and morningglory (Ipomea coccinea); the grasses are red millet (Panicum milliacem), green foxtail (Setaria viridis) and Japanese millet (Echinochloa frumentacea).
The seeded pans are sprayed so that the soil surface is uniformly covered with dilutions of the stock formulation providing dosage rates of the test compounds as shown in the following table.
Two weeks after treatment, percent control (plant kill) at each dosage rate is estimated with results as follows: […]

[12] = system: Soybeans; experiment: Example 18 phytotoxic effects on crop stands in different soils; format: in vivo, soybean
Protocol: as §9, §10, §11, §12, §13

[13] = system: Cotton; experiment: Field preemergence test, phytotoxic effects on crop; format: in vivo, cotton (Coker 413)
Text: as §5, §6, §7

[14] = 0.5 lb/A, Heavy Soil 5-5.5% O.M.
[15] = 0.5 lb/A, Medium Soil 2.0% O.M.
[16] = 1.0 lb/A, Heavy Soil 5-5.5% O.M.
[17] = 1.0 lb/A, Medium Soil 2.0% O.M.
[18] = 2.0 lb/A, Heavy Soil 5-5.5% O.M.
[19] = 2.0 lb/A, Medium Soil 2.0% O.M.

## C#CCN(C(=O)CCl)c1c(C)cccc1CC [Example 15, 2-Chloro-2'-methyl-6'-ethyl-N-propargylacetanilide]
[1]; 1 lb/A
  injury to the corn: no injury
[2]
  mortality at 280.212 g/ha: 88%
  mortality at 560.425 g/ha: 100%
  mortality at 1120.85 g/ha: 100%
  mortality at 2241.7 g/ha: 100%
[3]; 0.5 lb/A
  % Crop Kill, Corn: 0%
[3]; 1.0 lb/A
  % Crop Kill, Corn: 3%
[3]; 2.0 lb/A
  % Crop Kill, Corn: 12%
[4]; 0.5 lb/A
  % Crop Kill, Soybeans: 0%
[4]; 1.0 lb/A
  % Crop Kill, Soybeans: 3%
[4]; 2.0 lb/A
  % Crop Kill, Soybeans: 13%
[5]; 0.25 lb/A
  % Weed Control, Redroot Pigweed: 65%
[5]; 0.5 lb/A
  % Weed Control, Redroot Pigweed: 89%
[5]; 1.0 lb/A
  % Weed Control, Redroot Pigweed: 100%
[5]; 2.0 lb/A
  % Weed Control, Redroot Pigweed: 100%
[6]; 0.25 lb/A
  % Weed Control, Common Lambsquarter: 95%
[6]; 0.5 lb/A
  % Weed Control, Common Lambsquarter: 98%
[6]; 1.0 lb/A
  % Weed Control, Common Lambsquarter: 100%
[6]; 2.0 lb/A
  % Weed Control, Common Lambsquarter: 100%
[7]; 0.25 lb/A
  % Weed Control, Goosegrass: 87%
[7]; 0.5 lb/A
  % Weed Control, Goosegrass: 97%
[7]; 1.0 lb/A
  % Weed Control, Goosegrass: 100%
[7]; 2.0 lb/A
  % Weed Control, Goosegrass: 100%
[8]; 0.25 lb/A
  % Weed Control, Giant Foxtail: 47%
[8]; 0.5 lb/A
  % Weed Control, Giant Foxtail: 78%
[8]; 1.0 lb/A
  % Weed Control, Giant Foxtail: 97%
[8]; 2.0 lb/A
  % Weed Control, Giant Foxtail: 100%
[9]; 0.25 lb/A
  % Weed Control, Prickly Sida: 0%
[9]; 0.5 lb/A
  % Weed Control, Prickly Sida: 55%
[9]; 1.0 lb/A
  % Weed Control, Prickly Sida: 93%
[9]; 2.0 lb/A
  % Weed Control, Prickly Sida: 97%
[10]; [14]
  % Phytotoxicity, Corn: 0%
[10]; [15]
  % Phytotoxicity, Corn: 0%
[10]; 0.5 lb/A, Sand 0.7% O.M.
  % Phytotoxicity, Corn: 0%
[10]; 0.5 lb/A, Sand 1.8% O.M.
  % Phytotoxicity, Corn: 0%
[10]; [16]
  % Phytotoxicity, Corn: 0%
[10]; [17]
  % Phytotoxicity, Corn: 10%
[10]; 1.0 lb/A, Sand 0.7% O.M.
  % Phytotoxicity, Corn: 0%
[10]; 1.0 lb/A, Sand 1.8% O.M.
  % Phytotoxicity, Corn: 0%
[10]; [18]
  % Phytotoxicity, Corn: 10%
[10]; [19]
  % Phytotoxicity, Corn: 55%
[10]; 2.0 lb/A, Sand 0.7% O.M.
  % Phytotoxicity, Corn: 10%
[10]; 2.0 lb/A, Sand 1.8% O.M.
  % Phytotoxicity, Corn: 0%
[11]; 0.5 lb/A
  % Control, Broadleaves: 0%
[11]; 1.0 lb/A
  % Control, Broadleaves: 35%
[12]; [14]
  % Phytotoxicity, Soybeans: 0%
[12]; [15]
  % Phytotoxicity, Soybeans: 0%
[12]; 0.5 lb/A, Sand 0.7% O.M.
  % Phytotoxicity, Soybeans: 0%
[12]; 0.5 lb/A, Sand 1.8% O.M.
  % Phytotoxicity, Soybeans: 0%
[12]; [16]
  % Phytotoxicity, Soybeans: 0%
[12]; [17]
  % Phytotoxicity, Soybeans: 0%
[12]; 1.0 lb/A, Sand 0.7% O.M.
  % Phytotoxicity, Soybeans: 0%
[12]; 1.0 lb/A, Sand 1.8% O.M.
  % Phytotoxicity, Soybeans: 0%
[12]; [18]
  % Phytotoxicity, Soybeans: 0%
[12]; [19]
  % Phytotoxicity, Soybeans: 0%
[12]; 2.0 lb/A, Sand 0.7% O.M.
  % Phytotoxicity, Soybeans: 0%
[12]; 2.0 lb/A, Sand 1.8% O.M.
  % Phytotoxicity, Soybeans: 0%
[13]; 0.5 lb/A
  % Crop Kill, Cotton: 0%
[13]; 1.0 lb/A
  % Crop Kill, Cotton: 6%
[13]; 2.0 lb/A
  % Crop Kill, Cotton: 13%

## C#CCN(C(=O)CCl)c1c(CC)cccc1CC [Example 9, 2-Chloro-2',6'-diethyl-N-propargylacetanilide]
[1]; 2 lb/A
  phytotoxic effects on corn: no phytotoxic effects
[2]
  mortality at 280.212 g/ha: 68%
  mortality at 560.425 g/ha: 98%
  mortality at 1120.85 g/ha: 98%
  mortality at 2241.7 g/ha: 100%
[3]; 1.0 lb/A
  % Crop Kill, Corn: 0%
[3]; 2.0 lb/A
  % Crop Kill, Corn: 3%
[4]; 1.0 lb/A
  % Crop Kill, Soybeans: 0%
[4]; 2.0 lb/A
  % Crop Kill, Soybeans: 0%
[5]; 0.25 lb/A
  % Weed Control, Redroot Pigweed: 75%
[5]; 0.5 lb/A
  % Weed Control, Redroot Pigweed: 93%
[5]; 1.0 lb/A
  % Weed Control, Redroot Pigweed: 100%
[5]; 2.0 lb/A
  % Weed Control, Redroot Pigweed: 100%
[6]; 0.25 lb/A
  % Weed Control, Common Lambsquarter: 95%
[6]; 0.5 lb/A
  % Weed Control, Common Lambsquarter: 100%
[6]; 1.0 lb/A
  % Weed Control, Common Lambsquarter: 100%
[6]; 2.0 lb/A
  % Weed Control, Common Lambsquarter: 100%
[7]; 0.25 lb/A
  % Weed Control, Goosegrass: 94%
[7]; 0.5 lb/A
  % Weed Control, Goosegrass: 98%
[7]; 1.0 lb/A
  % Weed Control, Goosegrass: 100%
[7]; 2.0 lb/A
  % Weed Control, Goosegrass: 100%
[8]; 0.25 lb/A
  % Weed Control, Giant Foxtail: 42%
[8]; 0.5 lb/A
  % Weed Control, Giant Foxtail: 85%
[8]; 1.0 lb/A
  % Weed Control, Giant Foxtail: 97%
[8]; 2.0 lb/A
  % Weed Control, Giant Foxtail: 100%
[9]; 0.25 lb/A
  % Weed Control, Prickly Sida: 0%
[9]; 0.5 lb/A
  % Weed Control, Prickly Sida: 80%
[9]; 1.0 lb/A
  % Weed Control, Prickly Sida: 42%
[9]; 2.0 lb/A
  % Weed Control, Prickly Sida: 93%
[10]; [14]
  % Phytotoxicity, Corn: 0%
[10]; [15]
  % Phytotoxicity, Corn: 0%
[10]; 0.5 lb/A, Sand 0.7% O.M.
  % Phytotoxicity, Corn: 0%
[10]; 0.5 lb/A, Sand 1.8% O.M.
  % Phytotoxicity, Corn: 0%
[10]; [16]
  % Phytotoxicity, Corn: 0%
[10]; [17]
  % Phytotoxicity, Corn: 0%
[10]; 1.0 lb/A, Sand 0.7% O.M.
  % Phytotoxicity, Corn: 0%
[10]; 1.0 lb/A, Sand 1.8% O.M.
  % Phytotoxicity, Corn: 0%
[10]; [18]
  % Phytotoxicity, Corn: 10%
[10]; [19]
  % Phytotoxicity, Corn: 10%
[10]; 2.0 lb/A, Sand 0.7% O.M.
  % Phytotoxicity, Corn: 0%
[10]; 2.0 lb/A, Sand 1.8% O.M.
  % Phytotoxicity, Corn: 0%
[11]; 0.062 lb/A
  % Control, Broadleaves: 0%
[11]; 0.125 lb/A
  % Control, Broadleaves: 0%
[11]; 0.25 lb/A
  % Control, Broadleaves: 0%
[11]; 0.5 lb/A
  % Control, Broadleaves: 35%
[11]; 1.0 lb/A
  % Control, Broadleaves: 35%
[12]; [14]
  % Phytotoxicity, Soybeans: 0%
[12]; [15]
  % Phytotoxicity, Soybeans: 0%
[12]; 0.5 lb/A, Sand 0.7% O.M.
  % Phytotoxicity, Soybeans: 0%
[12]; 0.5 lb/A, Sand 1.8% O.M.
  % Phytotoxicity, Soybeans: 0%
[12]; [16]
  % Phytotoxicity, Soybeans: 0%
[12]; [17]
  % Phytotoxicity, Soybeans: 0%
[12]; 1.0 lb/A, Sand 0.7% O.M.
  % Phytotoxicity, Soybeans: 0%
[12]; 1.0 lb/A, Sand 1.8% O.M.
  % Phytotoxicity, Soybeans: 0%
[12]; [18]
  % Phytotoxicity, Soybeans: 0%
[12]; [19]
  % Phytotoxicity, Soybeans: 0%
[12]; 2.0 lb/A, Sand 0.7% O.M.
  % Phytotoxicity, Soybeans: 0%
[12]; 2.0 lb/A, Sand 1.8% O.M.
  % Phytotoxicity, Soybeans: 0%
[13]; 1.0 lb/A
  % Crop Kill, Cotton: 0%
[13]; 2.0 lb/A
  % Crop Kill, Cotton: 3%
